How the values were obtained:
Assay in all cases: pNP release at […] nm, Michaelis-Menten fit
[1] = system: T1, AFase-D3; format: biochemical, metagenome: high temperature compost; details: at the enzyme's pH and temperature optima (pH 4.5, 25 °C), 1 min; abstract gives KM range up to 0.43 mM; read-out: KM in mM (Std. error)
T1 construct: full-length ORF, 494 residues, 56 kDa; C-terminal His tag (pET21a, NdeI-XhoI); E. coli BL21(DE3); homo-hexamer; primer-encoded N-terminus MNNVVINV

[2] = system: T2, AFase-H4; format: biochemical, uncultured bacterium (compost metagenome); details: at the enzyme's pH and temperature optima (pH 5.0, 60 °C), 1 min; read-out: KM in mM (Std. error)
T2 construct: full-length ORF, 489 residues, 55 kDa, no signal peptide; C-terminal His tag (pET21a, NdeI-XhoI); E. coli BL21(DE3); homo-hexamer

[3] = system: T3, AFase-E3; format: biochemical, metagenome: high temperature compost; details: at the enzyme's pH and temperature optima (pH 4.0, 60 °C), 1 min; read-out: KM in mM (Std. error)
T3 construct: full-length ORF, 510 residues, 58 kDa; C-terminal His tag (pET21a, NdeI-HindIII); E. coli BL21(DE3); homo-hexamer

Km [1]: 0.38 mM
Km [2]: 0.31 mM
Km [3]: 0.33 mM
Structure (SMILES): O=[N+]([O-])c1ccc(O[C@@H]2O[C@@H](CO)[C@H](O)[C@H]2O)cc1 [pNP-α-L-arabinofuranoside]

Source: PMC6472066, “Characterisation of three novel α-L-arabinofuranosidases from a compost metagenome” (BMC Biotechnology, 2019)
